Assay results as given in ChEMBL document CHEMBL1130955, “Solid-phase synthesis of potential protein tyrosine phosphatase inhibitors via the Ugi four-component condensation” (Bioorg Med Chem Lett, 1998).

Test: Compound was tested for the inhibition of PTP-epsilon at the concentration 100 uM

| inhibition | SMILES |
| --- | --- |
| > 50% | CN(C)c1ccc(C(NC(=O)c2ccc(C(F)(F)P(=O)(O)O)cc2)C(=O)NCc2ccccc2)cc1 (stereo not drawn) |
| > 50% | O=C(NC(C(=O)NCc1ccccc1)c1ccc(Oc2ccccc2)cc1)c1ccc(C(F)(F)P(=O)(O)O)cc1 (stereo not drawn) |
| > 50% | CCCCCC(NC(=O)c1ccc(C(F)(F)P(=O)(O)O)cc1)C(=O)NCc1ccccc1 (stereo not drawn) |
